What all share (assay type): functional, cell-based
The subject of test [1] is MCF7. As to the kind of experiment: Antiproliferative activity against human MCF7 cells assessed as reduction in cell viability measured after 24 hrs by MTT assay. Particulars: MCF7, 24 h. A general note: Formazan colour is commonly taken as a measure of viable cells.
In test [2] the test system is HeLa. The experiment in a line: Antiproliferative activity against human HeLa cells assessed as reduction in cell viability measured after 24 hrs by MTT assay.
Test [3] relates to Raji. The experiment in a line: Antiproliferative activity against human Raji cells assessed as reduction in cell viability measured after 24 hrs by MTT assay.
For test [4], the system named is NCI-H460. As to the kind of experiment: Antiproliferative activity against human NCI-H460 cells assessed as reduction in cell viability measured after 24 hrs by MTT assay. Particulars: NCI-H460, 24 h.
The test system of test [5] is A2780S. As to the kind of experiment: Antiproliferative activity against human A2780S cells assessed as reduction in cell viability measured after 24 hrs by MTT assay.

The structures appear in SMILES notation.

IC50 data for 38 molecules are collected here from ChEMBL document CHEMBL5042535, “Structure-Based Design and Synthesis of N-Substituted 3-Amino-β-Carboline Derivatives as Potent αβ-Tubulin Degradation Agents” (J Med Chem, 2022).

The term IC50 denotes the concentration that gives 50% inhibition. Regarding `c1ccc(COc2cccc(CNc3cc4c(cn3)[nH]c3ccccc34)c2)cc1`, the IC50 in test [1], in test [2], in test [3], in test [4] and in test [5] was above 500 nM each time.
Consider `c1ccc(-c2ccc(CNc3cc4c(cn3)[nH]c3ccccc34)cc2)cc1`, for which the half-inhibitory concentration (IC50) in test [1], in test [2], in test [3], in test [4] and in test [5] was above 500 nM throughout.
For the molecule `COc1cc2c(c(OC)c1OC)-c1ccc(OC)c(=O)cc1[C@@H](NC(C)=O)CC2` [COLCHICINE], the IC50 worked out at 16 nM in test [2], 18 nM in test [3] and 12 nM in test [4].
As for `CC(C)Oc1cccc(CNc2cc3c(cn2)[nH]c2ccccc23)c1`, the IC50 in test [1], in test [2], in test [3], in test [4] and in test [5] was above 500 nM throughout.
Regarding `c1cc(CNc2cc3c(cn2)[nH]c2ccccc23)cc(Oc2ccc3ncccc3c2)c1`, the IC50 was 64 nM in test [1]; 93 nM in test [2]; 119 nM in test [3]; 234 nM in test [4]; 78 nM in test [5].
In the same order, the values of `CCCNc1cc2c(cn1)[nH]c1ccccc12` are above 500 nM, above 500 nM, above 500 nM, above 500 nM and above 500 nM.
In the same order, the values of `COCCOc1cccc(CNc2cc3c(cn2)[nH]c2ccccc23)c1` are above 500 nM, above 500 nM, above 500 nM, above 500 nM and above 500 nM.
On to `N#Cc1ccc(Oc2cccc(CNc3cc4c(cn3)[nH]c3ccccc34)c2)cc1`, for which the IC50 came to 47 nM in test [1]; 46 nM in test [2]; 37 nM in test [3]; 48 nM in test [4]; 60 nM in test [5].
Regarding `Cc1ccccc1Oc1cccc(CNc2cc3c(cn2)[nH]c2ccccc23)c1`, the IC50 in test [1] came out at 59 nM; in test [2], 57 nM; in test [3] it was 32 nM; in test [4], 52 nM; in test [5] it was 62 nM.
Taken in the same sequence, the figures for `c1ccc(Oc2ccc(Oc3cccc(CNc4cc5c(cn4)[nH]c4ccccc45)c3)cc2)cc1` were above 500 nM, above 500 nM, above 500 nM, above 500 nM and above 500 nM.
Taken in the same sequence, the figures for `N#Cc1ccccc1Oc1cccc(CNc2cc3c(cn2)[nH]c2ccccc23)c1` were above 500 nM, above 500 nM, above 500 nM, above 500 nM and above 500 nM.
With `FC(F)(F)c1ccc(Oc2cccc(CNc3cc4c(cn3)[nH]c3ccccc34)c2)cc1`, the half-inhibitory concentration (IC50) in test [1] turned out to be 68 nM; in test [2] it was 81 nM; in test [3], 54 nM; in test [4] it was 47 nM; in test [5] it was 85 nM.
In the same order, the values of `Cc1cccc(Oc2cccc(CNc3cc4c(cn3)[nH]c3ccccc34)c2)c1` are 47 nM, 41 nM, 29 nM, 44 nM and 44 nM.
With `CC(C)CCOc1cccc(CNc2cc3c(cn2)[nH]c2ccccc23)c1`, the IC50 in test [1], in test [2], in test [3], in test [4] and in test [5] was above 500 nM each time.
As for `CC(C)COc1cccc(CNc2cc3c(cn2)[nH]c2ccccc23)c1`, the IC50 in test [1], in test [2], in test [3], in test [4] and in test [5] was above 500 nM each time.
`c1ccc2c(c1)[nH]c1cnc(NC3CCCC3)cc12`: the IC50 in test [1] is 397 nM; in test [2], above 500 nM; in test [3] it was 242 nM; in test [4] it was above 500 nM; in test [5], 92 nM.
Consider `c1cc(CNc2cc3c(cn2)[nH]c2ccccc23)cc(OCC2CC2)c1`, for which the IC50 in test [1], in test [2], in test [3], in test [4] and in test [5] was above 500 nM in each case.
With `CC(C)=CCOc1cccc(CNc2cc3c(cn2)[nH]c2ccccc23)c1`, the IC50 in test [1], in test [2], in test [3], in test [4] and in test [5] was above 500 nM each time.
For `CC(=O)Nc1cccc(Oc2cccc(CNc3cc4c(cn3)[nH]c3ccccc34)c2)c1`, the half-maximal inhibitory concentration (IC50) was determined as 76 nM in test [1]; 83 nM in test [2]; 45 nM in test [3]; 74 nM in test [4]; 58 nM in test [5].
In the case of `CCOc1cccc(CNc2cc3c(cn2)[nH]c2ccccc23)c1`, the IC50 in test [1], in test [2], in test [3], in test [4] and in test [5] was above 500 nM throughout.
Take `c1ccc2c(c1)[nH]c1cnc(NCc3ccsc3)cc12`: the IC50 in test [1] is 73 nM; in test [2], 93 nM; in test [3], 43 nM; in test [4], 87 nM; in test [5], 63 nM.
Take `c1ccc2c(CNc3cc4c(cn3)[nH]c3ccccc34)c[nH]c2c1`: the IC50 in test [1], in test [2], in test [3], in test [4] and in test [5] was above 500 nM in each case.
Consider `COc1cc(Oc2cccc(CNc3cc4c(cn3)[nH]c3ccccc34)c2)cc(OC)c1OC`, for which the IC50 in test [1], in test [2], in test [3], in test [4] and in test [5] was above 500 nM each time.
With `c1ccc2c(c1)[nH]c1cnc(NCC3CCCCC3)cc12`, the IC50 in test [1], in test [2], in test [3], in test [4] and in test [5] was above 500 nM each time.
For `COc1ccc(Oc2cccc(CNc3cc4c(cn3)[nH]c3ccccc34)c2)cc1`, the IC50 in test [1] turned out to be 33 nM; in test [2], 19 nM; in test [3], 20 nM; in test [4], 67 nM; in test [5], 12 nM.
Taken in the same sequence, the figures for `CCCCOc1cccc(CNc2cc3c(cn2)[nH]c2ccccc23)c1` were above 500 nM, above 500 nM, above 500 nM, above 500 nM and above 500 nM.
As to `COc1ccc(Oc2cccc(CNc3cc4c(cn3)[nH]c3ccccc34)c2)cc1OC`, the IC50 in test [1] was 432 nM; in test [2], 266 nM; in test [3], 383 nM; in test [4], above 500 nM; in test [5] it was 264 nM.
Consider `CC(C)=CCNc1cc2c(cn1)[nH]c1ccccc12`, for which the IC50 in test [1] is above 500 nM; in test [2] it was above 500 nM; in test [3], 382 nM; in test [4], above 500 nM; in test [5] it was above 500 nM.
`c1cc(CNc2cc3c(cn2)[nH]c2ccccc23)cc(Oc2ccc3c(c2)OCCO3)c1`: the IC50 in test [1], in test [2], in test [3], in test [4] and in test [5] was above 500 nM throughout.
In the case of `COc1ccc(COc2cccc(CNc3cc4c(cn3)[nH]c3ccccc34)c2)cc1`, the IC50 in test [1], in test [2], in test [3], in test [4] and in test [5] was above 500 nM each time.
On to `CCCOc1cccc(CNc2cc3c(cn2)[nH]c2ccccc23)c1`, for which the IC50 in test [1], in test [2], in test [3], in test [4] and in test [5] was above 500 nM throughout.
Consider `c1cc(CNc2cc3c(cn2)[nH]c2ccccc23)cc(OC2CCCC2)c1`, for which the IC50 in test [1], in test [2], in test [3], in test [4] and in test [5] was above 500 nM in each case.
Consider `COc1ccc(CNc2cc3c(cn2)[nH]c2ccccc23)cn1`, for which the IC50 in test [1], in test [2], in test [3], in test [4] and in test [5] was above 500 nM in each case.
Consider `c1ccc2cc(CNc3cc4c(cn3)[nH]c3ccccc34)ccc2c1`, for which the IC50 in test [1], in test [2], in test [3], in test [4] and in test [5] was above 500 nM each time.
In the case of `c1ccc2c(CNc3cc4c(cn3)[nH]c3ccccc34)cccc2c1`, the IC50 in test [1], in test [2], in test [3], in test [4] and in test [5] was above 500 nM each time.
In the case of `Cc1ccc(Oc2cccc(CNc3cc4c(cn3)[nH]c3ccccc34)c2)cc1`, the IC50 in test [1] turned out to be 39 nM; in test [2] it was 56 nM; in test [3], 57 nM; in test [4], 165 nM; in test [5], 55 nM.
On to `CC(=O)Nc1ccccc1Oc1cccc(CNc2cc3c(cn2)[nH]c2ccccc23)c1`, for which the IC50 in test [1], in test [2], in test [3], in test [4] and in test [5] was above 500 nM throughout.
Turning to `COc1cccc(Oc2cccc(CNc3cc4c(cn3)[nH]c3ccccc34)c2)c1`, the IC50 amounted to 109 nM in test [1]; 219 nM in test [2]; 178 nM in test [3]; 313 nM in test [4]; 148 nM in test [5].
